Key:
[1] = system: rats; experiment: Acute toxicity with intravenous administration, rats; format: in vivo, S.D. strain rats; conditions: 14 days
Description: (§1) In this Example, the acute toxicity with intravenous administration of the non-radioactive labeling composition to rats or mice was evaluated. Namely, sterilized, pyrogen-free and oxygen-free water (1.0 ml) was added to a vial containing "FDSn-RBC" to make a stannous chloride solution (20 μmol/ml, […]). The resultant solution was intravenously administered to male and female ICR strain mice and S.D. strain rats. After 14 days, the accumulative death percentage was determined, and the lethal dose 50 (LD50) was calculated by the Litchfield-Wilcoxon's method.
The dose of the non-radioactive labeling composition to human beings may be 9.48 μg/kg (with the assumption that a total amount of one vial of FDSn-COL is administered to a person of 60 kilograms in bodyweight) as stannous chloride at the maximum in case of using for preparation of ^99m Tc-labeled tin colloid, and 31.95 μg/kg (corresponding to 20 μg/kg of stannous ion) in case of using for labeling of red blood cells in a human body. When these doses are compared with the LD50 values of female rats which are considered to be the most sensitive among the tested animals, said dose is about 1/1790 that of the LD50 value in case of preparation of ^99m Tc-labeled tin colloid and about 1/530 that of the LD50 value in case of labeling of red blood cells in a human being.

[2] = system: mice; experiment: Acute toxicity with intravenous administration, mice; format: in vivo, ICR strain mice; conditions: 14 days
Description: as §1

## [Cl][Sn][Cl] [stannous chloride]
[1]; female rats
  LD50: 17 ± 2 mg/kg
[1]; male rats
  LD50: 18 ± 3 mg/kg
[2]; female mice
  LD50: 28 ± 3 mg/kg
[2]; male mice
  LD50: 33 ± 3 mg/kg

From patent publication US5096693A, “Stable stannous chloride composition for labeling with radioactive technetium” (Nihon Medi-Physics Co., Ltd., priority 1984, dated 1992)
